Data: ChEMBL document CHEMBL3588841, “Synthesis and cancer cell growth inhibitory activity of icaritin derivatives” (Eur J Med Chem, 2015)

Tests used:
MCF7 [1] = assay: Cytotoxicity against human MCF7 cells assessed as cell viability by MTT assay; format: functional, cell-based
[2] = Cytotoxicity against human MDA-MB-435S cells assessed as cell viability by MTT assay; format: functional, cell-based
A549 [3] = assay: Cytotoxicity against human A549 cells assessed as cell viability by MTT assay; format: functional, cell-based
Vero = assay: Cytotoxicity against African green monkey Vero cells assessed as cell viability by MTT assay; format: cell-based; conditions: Chlorocebus sabaeus
[4] = Chemical stability of the compound in phosphate buffered saline assessed as decomposition at pH 7; format: physicochemical; conditions: read-out: Drug degradation
MCF7 [5] = assay: Ratio of icaritin to compound for human MCF7 cells assessed as cell viability by MTT assay; format: functional
[6] = Ratio of icaritin to compound for human MDA-MB-435S cells assessed as cell viability by MTT assay; format: functional
A549 [7] = assay: Ratio of icaritin to compound for human A549 cells assessed as cell viability by MTT assay; format: functional
MCF7 [8] = assay: Ratio of tamoxifen to compound for human MCF7 cells assessed as cell viability by MTT assay; format: functional
[9] = Ratio of tamoxifen to compound for human MDA-MB-435S cells assessed as cell viability by MTT assay; format: functional
A549 [10] = assay: Ratio of tamoxifen to compound for human A549 cells assessed as cell viability by MTT assay; format: functional

SMILES: COc1ccc(-c2oc3c(CC=C(C)C)c(OCCCC(=O)O)cc(O)c3c(=O)c2OCCCC(=O)O)cc1
- IC50 (MCF7 [1]): > 100 µM
- IC50 ([2]; Homo sapiens, MDA-MB-435S): 31.1 µM
- IC50 (A549 [3]): 26 µM

SMILES: COc1ccc(-c2oc3c(CC=C(C)C)c(OCCCO)cc(O)c3c(=O)c2OCCCO)cc1
- IC50 (MCF7 [1]): > 100 µM
- IC50 ([2]; Homo sapiens, MDA-MB-435S): 21.8 µM
- IC50 (A549 [3]): > 100 µM

SMILES: COc1ccc(-c2oc3c(CC=C(C)C)c(OCCCOC(=O)CCC(=O)O)cc(O)c3c(=O)c2OCCCOC(=O)CCC(=O)O)cc1
- IC50 (MCF7 [1]): > 100 µM
- IC50 ([2]; Homo sapiens, MDA-MB-435S): 6.4 µM
- IC50 (A549 [3]): 18.4 µM
- IC50 (Vero): 14.5 µM

SMILES: COc1ccc(-c2oc3c(CC=C(C)C)c(O)cc(O)c3c(=O)c2OC(C)C(=O)O)cc1 (racemic)
- IC50 (MCF7 [1]): > 100 µM
- IC50 ([2]; Homo sapiens, MDA-MB-435S): 7.5 µM
- IC50 (A549 [3]): 40.7 µM
- IC50 (Vero): 36.6 µM

SMILES: CCOC(=O)C(C)Oc1c(-c2ccc(OC)cc2)oc2c(CC=C(C)C)c(O)cc(O)c2c1=O (racemic)
- IC50 (MCF7 [1]): 4.7 µM
- IC50 ([2]; Homo sapiens, MDA-MB-435S): 4.1 µM
- IC50 (A549 [3]): 4.6 µM
- IC50 (Vero): 6.5 µM
- degraded [4]: 7%

SMILES: COc1ccc(-c2oc3c(CC=C(C)C)c(OCCOC(=O)CCC(=O)O)cc(O)c3c(=O)c2OCCOC(=O)CCC(=O)O)cc1
- IC50 (MCF7 [1]): > 100 µM
- IC50 ([2]; Homo sapiens, MDA-MB-435S): 60.5 µM
- IC50 (A549 [3]): > 100 µM

SMILES: CCOC(=O)CCCOc1cc(O)c2c(=O)c(O)c(-c3ccc(OC)cc3)oc2c1CC=C(C)C
- IC50 (MCF7 [1]): > 100 µM
- IC50 ([2]; Homo sapiens, MDA-MB-435S): > 100 µM
- IC50 (A549 [3]): > 100 µM

SMILES: CCOC(=O)C(Oc1cc(O)c2c(=O)c(OC(C(=O)OCC)C(=O)OCC)c(-c3ccc(OC)cc3)oc2c1CC=C(C)C)C(=O)OCC
- IC50 (MCF7 [1]): > 100 µM
- IC50 ([2]; Homo sapiens, MDA-MB-435S): 85 µM
- IC50 (A549 [3]): > 100 µM

SMILES: CCOC(=O)COc1cc(O)c2c(=O)c(O)c(-c3ccc(OC)cc3)oc2c1CC=C(C)C
- IC50 (MCF7 [1]): 27.9 µM
- IC50 ([2]; Homo sapiens, MDA-MB-435S): 5.3 µM
- IC50 (A549 [3]): 41.6 µM
- IC50 (Vero): 1.4 µM

SMILES: COc1ccc(-c2oc3c(CC=C(C)C)c(OCC(=O)O)cc(O)c3c(=O)c2O)cc1
- IC50 (MCF7 [1]): > 100 µM
- IC50 ([2]; Homo sapiens, MDA-MB-435S): 13.5 µM
- IC50 (A549 [3]): 16.7 µM

SMILES: COc1ccc(-c2oc3c(CC=C(C)C)c(O)cc(O)c3c(=O)c2O)cc1 [ICARITIN]
- IC50 (MCF7 [1]): 7 µM
- IC50 ([2]; Homo sapiens, MDA-MB-435S): 24.9 µM
- IC50 (A549 [3]): > 100 µM
- IC50 (Vero): 21.6 µM

SMILES: COc1ccc(-c2oc3c(CC=C(C)C)c(OCCCC(=O)O)cc(O)c3c(=O)c2O)cc1
- IC50 (MCF7 [1]): > 100 µM
- IC50 ([2]; Homo sapiens, MDA-MB-435S): 12.7 µM
- IC50 (A549 [3]): 19.1 µM

SMILES: COc1ccc(-c2oc3c(CC=C(C)C)c(OCCOC(=O)CCCC(=O)O)cc(O)c3c(=O)c2OCCOC(=O)CCCC(=O)O)cc1
- IC50 (MCF7 [1]): 3 µM
- IC50 ([2]; Homo sapiens, MDA-MB-435S): 6.3 µM
- IC50 (A549 [3]): 6.1 µM
- IC50 (Vero): > 100 µM
- degraded [4]: 7%

SMILES: CCOC(=O)CCCOc1cc(O)c2c(=O)c(OCCCC(=O)OCC)c(-c3ccc(OC)cc3)oc2c1CC=C(C)C
- IC50 (MCF7 [1]): > 100 µM
- IC50 ([2]; Homo sapiens, MDA-MB-435S): > 100 µM
- IC50 (A549 [3]): > 100 µM

SMILES: CCOC(=O)C(C)Oc1cc(O)c2c(=O)c(OC(C)C(=O)OCC)c(-c3ccc(OC)cc3)oc2c1CC=C(C)C (single isomer, unassigned; diastereomer 2)
- IC50 (MCF7 [1]): > 100 µM
- IC50 ([2]; Homo sapiens, MDA-MB-435S): > 100 µM
- IC50 (A549 [3]): > 100 µM

SMILES: CCOC(=O)C(Oc1c(-c2ccc(OC)cc2)oc2c(CC=C(C)C)c(O)cc(O)c2c1=O)C(=O)OCC
- IC50 (MCF7 [1]): 17.2 µM
- IC50 ([2]; Homo sapiens, MDA-MB-435S): 4.4 µM
- IC50 (A549 [3]): 19.3 µM
- IC50 (Vero): 4.4 µM

SMILES: CCOC(=O)/C=C/COc1cc(O)c2c(=O)c(O)c(-c3ccc(OC)cc3)oc2c1CC=C(C)C
- IC50 (MCF7 [1]): > 100 µM
- IC50 ([2]; Homo sapiens, MDA-MB-435S): > 100 µM
- IC50 (A549 [3]): > 100 µM

SMILES: COc1ccc(-c2oc3c(CC=C(C)C)c(O)cc(O)c3c(=O)c2OC(C(=O)O)C(=O)O)cc1
- IC50 (MCF7 [1]): > 100 µM
- IC50 ([2]; Homo sapiens, MDA-MB-435S): > 100 µM
- IC50 (A549 [3]): > 100 µM

SMILES: COc1ccc(-c2oc3c(CC=C(C)C)c(O)cc(O)c3c(=O)c2OC/C=C/C(=O)O)cc1
- IC50 (MCF7 [1]): 48.9 µM
- IC50 ([2]; Homo sapiens, MDA-MB-435S): 8.3 µM
- IC50 (A549 [3]): 10.7 µM
- IC50 (Vero): 7.1 µM

SMILES: COc1ccc(-c2oc3c(CC=C(C)C)c(OC(C)C(=O)O)cc(O)c3c(=O)c2O)cc1 (racemic)
- IC50 (MCF7 [1]): > 100 µM
- IC50 ([2]; Homo sapiens, MDA-MB-435S): 5.7 µM
- IC50 (A549 [3]): 15.3 µM
- IC50 (Vero): 19.3 µM

SMILES: COc1ccc(-c2oc3c(CC=C(C)C)c(OC/C=C/C(=O)O)cc(O)c3c(=O)c2OC/C=C/C(=O)O)cc1
- IC50 (MCF7 [1]): > 100 µM
- IC50 ([2]; Homo sapiens, MDA-MB-435S): 57.5 µM
- IC50 (A549 [3]): > 100 µM

SMILES: CCOC(=O)COc1cc(O)c2c(=O)c(OCC(=O)OCC)c(-c3ccc(OC)cc3)oc2c1CC=C(C)C
- IC50 (MCF7 [1]): > 100 µM
- IC50 ([2]; Homo sapiens, MDA-MB-435S): > 100 µM
- IC50 (A549 [3]): > 100 µM

SMILES: COc1ccc(-c2oc3c(CC=C(C)C)c(OCCO)cc(O)c3c(=O)c2OCCO)cc1
- IC50 (MCF7 [1]): > 100 µM
- IC50 ([2]; Homo sapiens, MDA-MB-435S): > 100 µM
- IC50 (A549 [3]): > 100 µM

SMILES: COc1ccc(-c2oc3c(CC=C(C)C)c(O)cc(O)c3c(=O)c2OCC(=O)O)cc1
- IC50 (MCF7 [1]): 82.5 µM
- IC50 ([2]; Homo sapiens, MDA-MB-435S): 17.8 µM
- IC50 (A549 [3]): 43.4 µM

SMILES: CCOC(=O)C(C)Oc1cc(O)c2c(=O)c(O)c(-c3ccc(OC)cc3)oc2c1CC=C(C)C (racemic)
- IC50 (MCF7 [1]): > 100 µM
- IC50 ([2]; Homo sapiens, MDA-MB-435S): 2.5 µM
- IC50 (A549 [3]): 26.5 µM
- IC50 (Vero): 1.4 µM
- degraded [4]: 25%

SMILES: COc1ccc(-c2oc3c(CC=C(C)C)c(OCCCOC(=O)CCCC(=O)O)cc(O)c3c(=O)c2OCCCOC(=O)CCCC(=O)O)cc1
- IC50 (MCF7 [1]): 2.2 µM
- IC50 ([2]; Homo sapiens, MDA-MB-435S): 8.1 µM
- IC50 (A549 [3]): 14.3 µM
- IC50 (Vero): 6.3 µM
- degraded [4]: 7%

SMILES: COc1ccc(-c2oc3c(CC=C(C)C)c(OC/C=C/C(=O)O)cc(O)c3c(=O)c2O)cc1
- IC50 (MCF7 [1]): > 100 µM
- IC50 ([2]; Homo sapiens, MDA-MB-435S): 11.3 µM
- IC50 (A549 [3]): 22.9 µM

SMILES: CC/C(=C(\c1ccccc1)c1ccc(OCCN(C)C)cc1)c1ccccc1 [TAMOXIFEN]
- IC50 (MCF7 [1]): 3.8 µM
- IC50 ([2]; Homo sapiens, MDA-MB-435S): 5.5 µM
- IC50 (A549 [3]): 8.4 µM
- IC50 (Vero): 5.7 µM

SMILES: COc1ccc(-c2oc3c(CC=C(C)C)c(OC(C)C(=O)O)cc(O)c3c(=O)c2OC(C)C(=O)O)cc1 (stereo in doubt; 3c)
- IC50 (MCF7 [1]): > 100 µM
- IC50 ([2]; mda-mb-435s): > 100 µM
- IC50 (A549 [3]): > 100 µM

SMILES: CCOC(=O)/C=C/COc1cc(O)c2c(=O)c(OC/C=C/C(=O)OCC)c(-c3ccc(OC)cc3)oc2c1CC=C(C)C
- IC50 (MCF7 [1]): > 100 µM
- IC50 ([2]; Homo sapiens, MDA-MB-435S): > 100 µM
- IC50 (A549 [3]): > 100 µM

SMILES: CCOC(=O)COc1c(-c2ccc(OC)cc2)oc2c(CC=C(C)C)c(O)cc(O)c2c1=O
- IC50 (MCF7 [1]): > 100 µM
- IC50 ([2]; Homo sapiens, MDA-MB-435S): 30 µM
- IC50 (A549 [3]): 65.2 µM

SMILES: CCOC(=O)/C=C/COc1c(-c2ccc(OC)cc2)oc2c(CC=C(C)C)c(O)cc(O)c2c1=O
- IC50 (MCF7 [1]): 10.3 µM
- IC50 ([2]; Homo sapiens, MDA-MB-435S): 2.2 µM
- IC50 (A549 [3]): 4.7 µM
- IC50 (Vero): 3.1 µM
- Ratio (MCF7 [5]): 2.5
- Ratio [6]: 2.5
- Ratio (A549 [7]): 2.5
- Ratio (MCF7 [8]): 2.5
- Ratio [9]: 2.5
- Ratio (A549 [10]): 2.5

SMILES: CCOC(=O)CCCOc1c(-c2ccc(OC)cc2)oc2c(CC=C(C)C)c(O)cc(O)c2c1=O
- IC50 (MCF7 [1]): 3 µM
- IC50 ([2]; Homo sapiens, MDA-MB-435S): 8.8 µM
- IC50 (A549 [3]): 11 µM
- IC50 (Vero): 5.8 µM

SMILES: COc1ccc(-c2oc3c(CC=C(C)C)c(OCC(=O)O)cc(O)c3c(=O)c2OCC(=O)O)cc1
- IC50 (MCF7 [1]): > 100 µM
- IC50 ([2]; Homo sapiens, MDA-MB-435S): > 100 µM
- IC50 (A549 [3]): > 100 µM

SMILES: COc1ccc(-c2oc3c(CC=C(C)C)c(O)cc(O)c3c(=O)c2OCCCC(=O)O)cc1
- IC50 (MCF7 [1]): > 100 µM
- IC50 ([2]; Homo sapiens, MDA-MB-435S): 10 µM
- IC50 (A549 [3]): 23.9 µM
- IC50 (Vero): 55.9 µM

SMILES: COc1ccc(-c2oc3c(CC=C(C)C)c(OC(C(=O)O)C(=O)O)cc(O)c3c(=O)c2OC(C(=O)O)C(=O)O)cc1
- IC50 (MCF7 [1]): > 100 µM
- IC50 ([2]; Homo sapiens, MDA-MB-435S): 78.9 µM
- IC50 (A549 [3]): > 100 µM

SMILES: COc1ccc(-c2oc3c(CC=C(C)C)c(OC(C)C(=O)O)cc(O)c3c(=O)c2OC(C)C(=O)O)cc1 (stereo in doubt; 3b)
- IC50 ([2]; mda-mb-435s): 26.7 µM
